Values quoted from earlier work in patent publication US20090247593A1, “N-THIAZOL-2-YL-BENZAMIDE DERIVATIVES” (H. Lundbeck A/S, priority 2003, published 2009).
Like-named read-outs stand apart in the source and are kept apart here. Values belong to the compound of their own block, whether it stands above or below them.

Columns and labels:
[1] = test system: mice; conditions: mouse forced swimming test
[2] = test system: unilateral 6-OHDA lesioned mice and rats; conditions: elicited by a subthreshold dose of levodopa
[3] = test system: non-human primates treated with MPTP
[4] = test system: MPTP treated mice and 6-OHDA-lesioned rats
[5] = test system: mice; conditions: for total immobility time: mouse tail suspension test
[6] = mice previously screened for having high immobility time

SMILES: Nc1nc(Cl)nc2c1ncn2[C@@H]1O[C@H](CO)[C@@H](O)[C@H]1O [2-chloroadenosine]
immobility time [1]: increased immobility time

dyskinesias ([3]; non-human primates, MPTP): without causing dyskinesias
SMILES: CCn1c(=O)c2c(nc(/C=C/c3ccc(OC)c(OC)c3)n2C)n(CC)c1=O [KW-6002, 8-[(1E)-2-(3,4-dimethoxyphenyl)ethenyl]-1,3-diethyl-3,7-dihydro-7-methyl-1H-purine-2,6-dione]
contralateral rotations [2]: enhance contralateral rotations | motor impairment ([3]; induced in non-human primates by MPTP): significantly improves motor impairment | functional loss of dopaminergic nerve terminals in the striatum [4]: prevented functional loss of dopaminergic nerve terminals in the striatum | gliosis normally induced around degenerating neurons [4]: prevented gliosis | total immobility time [5]: reduced the total immobility time

SMILES: Nc1nc2c(cnn2CCc2ccccc2)c2nc(-c3ccco3)nn12 [SCH58261, 2-(2-furanyl)-7-(2-phenylethyl)-7H-pyrazolo[4,3-e][1,2,4]triazolo[1,5-c]pyrimidin-5-amine]
contralateral rotations [2]: enhance contralateral rotations | immobility [5, 6]: reduce immobility | immobility ([5]; mice selectively bred for their helplessness): reduced immobility | total immobility time [5]: reduced the total immobility time

SMILES: Nc1nc(NCCc2ccc(O)cc2)nc2nc(-c3ccco3)nn12 [ZM241385, 4-(2-[7-amino-2-(2-furyl) [1,2,4]triazolo[2,3-a][1,3,5]triazin-5-ylamino]-ethyl)phenol]
immobility [5, 6]: reduce immobility

SMILES: Nc1ncnc2c1ncn2[C@@H]1O[C@H](CO)[C@@H](O)[C@H]1O [adenosine]
immobility time [1]: increased immobility time
